In publication PMC6198068, “Discovery of a Novel Nav1.7 Inhibitor From Cyriopagopus albostriatus Venom With Potent Analgesic Efficacy” (Frontiers in Pharmacology, 2018):
Where a SMILES comes first, the peptide text is derived from it. Bridges are numbered along the chain shown (N, C = ends).

Experiments:
Nav1.3 = biological target: T1, Nav1.3 (Homo sapiens, UniProt Q9NY46); assay: Whole-cell patch-clamp, Nav1.3 in HEK293T cells; assay type: cell-based; conditions: mean ± SEM
T1 construct: expressed in transfected cells; host or cells: HEK293T
Text: (§1) The cDNA genes encoding rat Nav1.4 and human Nav1.7 were subcloned into vectors pRGB4 and pcDNA3.1-mod, respectively. Mutations of rNav1.4 (N655D, Q657E, and N655D/Q657E) and hNav1.7 (D816N, E818Q, and D816N/E818Q) were constructed using the Gene Tailor Site-Directed Mutagenesis system (Invitrogen, Carlsbad, CA, United States), according to the manufacturer’s instructions. Nav1.2–Nav1.7 and mutant plasmids together with eGFP were transiently transfected into HEK293T cells while Nav1.8 together with eGFP was transiently transfected into ND7/23 cells by Lipofectamine 2000 (Invitrogen, Carlsbad, CA, United States). Additionally, plasmids β1- and β2-eGFP encoding the human β1 and β2 subunits, respectively, were co-transfected with those encoding WT Nav1.7 and Nav1.7 mutations in HEK293T cells. […] Cells with green fluorescent protein fluorescence were selected for whole-cell patch-clamp recordings 24 h after transfection.
(§2) Whole-cell patch-clamp recordings were performed at room temperature (20–25°C) using an EPC 10 USB Patch Clamp Amplifier (HEKA, Elektronik, Lambrecht, Germany). […] Data was analyzed by software Igo Pro 6.10A (WaveMetrics, Lake Oswego, OR, United States), SigmaPlot 10.0 (Sigma-Aldrich, St. Louis, MO, United States), OriginPro 8 (OriginLab Corp., Northampton, MA, United States), and GraphPad Prism 5 (GraphPad Software, San Diego, CA, United States). […]

Nav1.4/Q657E = biological target: T2, Nav1.4/Q657E (Rattus norvegicus, UniProt P15390, Q657E); assay: Whole-cell patch-clamp, Nav1.4/Q657E in HEK293T cells; assay type: cell-based
T2 construct: expressed in transfected cells; host or cells: HEK293T
Text: as §1, §2

Human Nav1.9 = assay: Whole-cell patch-clamp, Nav1.9 in ND7/23 cells; assay type: cell-based; conditions: up to 10 μM, 50 ms to −40 mV from −120 mV, in presence of 1 μM TTX
WT Nav1.7 = biological target: T3, WT Nav1.7 (Homo sapiens, UniProt Q15858); assay: Time course of Nav1.7 inhibition and recovery upon washing; assay type: cell-based; conditions: 1 μM, n = 4
T3 construct: expressed in transfected cells; host or cells: HEK293T
Text: as §1, §2

Nav1.4/N655D = assay: Whole-cell patch-clamp, Nav1.4/N655D in HEK293T cells; assay type: cell-based, rat; conditions: 1 μM, n = 4–5 cells
Text: as §1, §2

Nav1.7 = biological target: T4, Nav1.7 (Homo sapiens, UniProt Q15858); assay: Rate of toxin dissociation from Nav1.7 at depolarizing pulses; assay type: cell-based; conditions: 1 μM, mean ± SEM, n = 6–11 cells
T4 construct: expressed in transfected cells; host or cells: HEK293T
Text: as §1, with “cells. Human Nav1.9 was transfected into ND7/23 cells according to a previous report ([Zhou et al., 2017]).” for “cells.”
as §2
Fast inactivation time constants were calculated by fitting current decay traces with a single exponential function using the I–V protocol described above. Recovery from fast-inactivation (repriming) was assessed by using a two-pulse protocol consisting of a depolarizing pulse to −10 mV for 50 ms to inactivate channels, followed by a step to −100 mV of variable duration (1 to 1024 ms) to promote recovery, and 50 ms test pulse to −10 mV to assess availability of channels. […]

Nav1.2 = biological target: T5, Nav1.2 (Homo sapiens, UniProt Q99250); assay: Whole-cell patch-clamp, Nav1.2 in HEK293T cells; assay type: cell-based; conditions: mean ± SEM
T5 construct: expressed in transfected cells; host or cells: HEK293T
Text: as §1, §2

Nav1.7/D816N = biological target: T6, Nav1.7/D816N (Homo sapiens, UniProt Q15858, D827N); assay: Fast inactivation kinetics in Nav1.7/D816N channel; assay type: cell-based; conditions: 0.2 µM; between -10 mV and +10 mV; n = 7
T6 construct: expressed in transfected cells; host or cells: HEK293T
Text: as §1, with “States).” for “States). Additionally, plasmids β1- and β2-eGFP encoding the human β1 and β2 subunits, respectively, were co-transfected with those encoding WT Nav1.7 and Nav1.7 mutations in HEK293T cells.”
as §2
Fast inactivation time constants were calculated by fitting current decay traces with a single exponential function using the I–V protocol described above. […]

[1] = 1 μM, 50 ms to −10 mV from −100 mV
[2] = whole-cell patch-clamp, n = 4–7 cells per data point

T4 sequence (O60939 30-215): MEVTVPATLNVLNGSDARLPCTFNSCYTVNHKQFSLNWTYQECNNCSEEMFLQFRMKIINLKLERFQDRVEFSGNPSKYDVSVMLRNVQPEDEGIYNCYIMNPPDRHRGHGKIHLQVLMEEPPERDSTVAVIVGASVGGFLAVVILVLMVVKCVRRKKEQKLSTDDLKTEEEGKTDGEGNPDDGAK
T4 sequence (Q15858 other isoform, or with tags, fused parts or gaps): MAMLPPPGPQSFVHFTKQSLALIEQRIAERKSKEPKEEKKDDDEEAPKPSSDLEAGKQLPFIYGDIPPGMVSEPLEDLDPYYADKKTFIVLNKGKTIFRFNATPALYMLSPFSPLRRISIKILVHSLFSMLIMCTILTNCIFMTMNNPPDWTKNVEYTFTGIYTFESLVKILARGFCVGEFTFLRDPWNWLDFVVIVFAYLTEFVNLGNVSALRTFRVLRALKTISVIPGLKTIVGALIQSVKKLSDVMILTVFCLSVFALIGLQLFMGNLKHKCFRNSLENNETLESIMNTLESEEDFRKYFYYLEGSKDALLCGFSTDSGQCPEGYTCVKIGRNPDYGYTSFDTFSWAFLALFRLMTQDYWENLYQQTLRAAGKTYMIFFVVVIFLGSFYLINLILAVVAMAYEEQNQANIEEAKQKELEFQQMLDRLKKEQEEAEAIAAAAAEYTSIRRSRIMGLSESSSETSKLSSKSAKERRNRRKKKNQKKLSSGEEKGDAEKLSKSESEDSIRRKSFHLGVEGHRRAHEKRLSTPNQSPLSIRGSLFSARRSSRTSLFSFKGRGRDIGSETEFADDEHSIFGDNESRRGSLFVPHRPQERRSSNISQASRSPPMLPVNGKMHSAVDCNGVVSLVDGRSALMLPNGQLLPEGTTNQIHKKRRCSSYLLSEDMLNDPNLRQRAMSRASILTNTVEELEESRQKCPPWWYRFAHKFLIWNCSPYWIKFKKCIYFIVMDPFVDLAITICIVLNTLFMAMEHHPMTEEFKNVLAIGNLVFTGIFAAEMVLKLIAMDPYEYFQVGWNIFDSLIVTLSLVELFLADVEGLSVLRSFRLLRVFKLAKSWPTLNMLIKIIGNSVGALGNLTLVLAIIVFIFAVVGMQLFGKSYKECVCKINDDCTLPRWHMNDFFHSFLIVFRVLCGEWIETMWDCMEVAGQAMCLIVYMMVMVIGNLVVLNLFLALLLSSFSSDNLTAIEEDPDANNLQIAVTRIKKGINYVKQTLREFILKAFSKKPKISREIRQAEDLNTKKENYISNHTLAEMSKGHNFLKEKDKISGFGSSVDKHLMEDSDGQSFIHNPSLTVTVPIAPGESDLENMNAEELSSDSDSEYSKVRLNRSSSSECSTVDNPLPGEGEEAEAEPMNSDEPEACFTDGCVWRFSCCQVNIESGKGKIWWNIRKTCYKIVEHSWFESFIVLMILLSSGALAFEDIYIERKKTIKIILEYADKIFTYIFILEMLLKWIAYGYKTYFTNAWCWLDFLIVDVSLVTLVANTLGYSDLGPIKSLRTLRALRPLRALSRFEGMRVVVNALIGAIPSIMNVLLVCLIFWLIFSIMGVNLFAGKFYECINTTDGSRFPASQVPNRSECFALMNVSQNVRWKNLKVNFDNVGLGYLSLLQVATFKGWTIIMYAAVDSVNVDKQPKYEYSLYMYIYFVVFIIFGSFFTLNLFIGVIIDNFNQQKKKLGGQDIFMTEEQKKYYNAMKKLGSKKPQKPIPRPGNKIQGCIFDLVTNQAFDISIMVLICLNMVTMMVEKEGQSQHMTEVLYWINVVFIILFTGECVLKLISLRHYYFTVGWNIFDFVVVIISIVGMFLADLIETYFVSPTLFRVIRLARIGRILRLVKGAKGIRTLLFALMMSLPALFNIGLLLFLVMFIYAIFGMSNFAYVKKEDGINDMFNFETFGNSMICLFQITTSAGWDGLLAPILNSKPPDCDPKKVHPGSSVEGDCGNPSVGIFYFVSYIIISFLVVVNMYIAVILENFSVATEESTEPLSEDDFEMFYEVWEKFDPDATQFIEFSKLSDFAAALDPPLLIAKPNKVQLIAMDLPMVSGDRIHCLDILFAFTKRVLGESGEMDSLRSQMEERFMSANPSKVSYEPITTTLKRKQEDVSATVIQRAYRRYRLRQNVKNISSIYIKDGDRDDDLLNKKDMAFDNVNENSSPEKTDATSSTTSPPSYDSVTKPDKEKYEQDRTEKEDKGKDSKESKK
T4 sequence (Q07699 19-218, further chain): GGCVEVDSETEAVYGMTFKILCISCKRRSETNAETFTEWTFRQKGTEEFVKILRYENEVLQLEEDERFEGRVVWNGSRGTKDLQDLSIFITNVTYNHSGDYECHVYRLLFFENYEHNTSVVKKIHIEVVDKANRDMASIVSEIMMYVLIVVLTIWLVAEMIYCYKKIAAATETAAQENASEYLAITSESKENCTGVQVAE
T2 sequence (P15390 whole entry Q657E): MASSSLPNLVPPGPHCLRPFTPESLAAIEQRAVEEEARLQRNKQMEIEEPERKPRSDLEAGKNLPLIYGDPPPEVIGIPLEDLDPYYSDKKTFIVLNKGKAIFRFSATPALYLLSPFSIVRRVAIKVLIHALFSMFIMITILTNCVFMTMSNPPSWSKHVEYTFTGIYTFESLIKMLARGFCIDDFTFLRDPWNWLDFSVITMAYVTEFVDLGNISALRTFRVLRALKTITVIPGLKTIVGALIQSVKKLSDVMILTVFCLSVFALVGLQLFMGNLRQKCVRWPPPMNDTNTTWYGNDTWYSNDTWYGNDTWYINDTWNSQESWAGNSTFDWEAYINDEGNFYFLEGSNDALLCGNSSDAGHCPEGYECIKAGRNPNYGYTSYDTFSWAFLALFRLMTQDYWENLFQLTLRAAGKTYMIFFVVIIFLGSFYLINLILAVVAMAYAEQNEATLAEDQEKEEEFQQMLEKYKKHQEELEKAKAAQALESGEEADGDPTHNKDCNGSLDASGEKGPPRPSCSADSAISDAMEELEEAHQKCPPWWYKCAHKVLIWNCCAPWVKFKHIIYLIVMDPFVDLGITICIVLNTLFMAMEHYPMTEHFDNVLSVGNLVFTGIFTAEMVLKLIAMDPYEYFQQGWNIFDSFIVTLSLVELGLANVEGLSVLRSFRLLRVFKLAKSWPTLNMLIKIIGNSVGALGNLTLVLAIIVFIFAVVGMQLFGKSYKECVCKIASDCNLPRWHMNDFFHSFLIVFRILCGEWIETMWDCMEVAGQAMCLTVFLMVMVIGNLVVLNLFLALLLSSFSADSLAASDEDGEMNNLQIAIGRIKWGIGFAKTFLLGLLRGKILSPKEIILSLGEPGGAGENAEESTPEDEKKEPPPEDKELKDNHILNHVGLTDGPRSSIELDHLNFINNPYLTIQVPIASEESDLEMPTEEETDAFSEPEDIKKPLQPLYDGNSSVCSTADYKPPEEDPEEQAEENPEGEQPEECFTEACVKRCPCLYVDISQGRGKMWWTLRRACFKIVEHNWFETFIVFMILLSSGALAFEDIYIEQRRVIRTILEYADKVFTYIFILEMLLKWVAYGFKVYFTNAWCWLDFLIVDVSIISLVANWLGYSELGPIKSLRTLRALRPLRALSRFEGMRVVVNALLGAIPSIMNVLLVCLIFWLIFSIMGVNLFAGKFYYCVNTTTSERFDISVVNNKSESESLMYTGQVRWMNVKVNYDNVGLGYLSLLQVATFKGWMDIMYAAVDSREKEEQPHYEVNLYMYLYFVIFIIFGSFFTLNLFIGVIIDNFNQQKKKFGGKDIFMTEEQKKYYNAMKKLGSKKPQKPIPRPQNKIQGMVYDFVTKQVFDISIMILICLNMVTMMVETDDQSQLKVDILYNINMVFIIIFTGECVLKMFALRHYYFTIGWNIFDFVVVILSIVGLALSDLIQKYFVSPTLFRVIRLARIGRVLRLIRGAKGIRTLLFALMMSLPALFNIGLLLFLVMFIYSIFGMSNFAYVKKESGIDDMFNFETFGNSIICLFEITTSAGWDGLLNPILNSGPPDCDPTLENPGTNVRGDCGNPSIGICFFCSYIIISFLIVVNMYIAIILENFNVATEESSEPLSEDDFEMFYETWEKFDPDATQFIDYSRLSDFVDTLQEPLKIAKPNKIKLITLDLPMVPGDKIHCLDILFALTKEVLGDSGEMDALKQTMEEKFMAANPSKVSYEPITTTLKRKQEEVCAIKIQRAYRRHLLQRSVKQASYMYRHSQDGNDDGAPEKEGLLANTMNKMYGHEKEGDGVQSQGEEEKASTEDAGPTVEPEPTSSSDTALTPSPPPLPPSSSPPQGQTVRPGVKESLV
T3 sequence (Q07699 19-218): as the sequence (Q07699 19-218, further chain) above
T3 sequence (Q15858 other isoform, or with tags, fused parts or gaps): as the sequence (Q15858 other isoform, or with tags, fused parts or gaps) above
T3 sequence (O60939 30-215, further chain): as the sequence (O60939 30-215) above
T6 sequence (O60939 30-215): as above
T6 sequence (Q07699 19-218, further chain): as the sequence (Q07699 19-218, further chain) above
T6 sequence (Q15858 other isoform, or with tags, fused parts or gaps D816N): as the sequence (Q15858 other isoform, or with tags, fused parts or gaps) above, with D816N counted along it

With CC(C)C[C@H](NC(=O)[C@H](CC(=O)O)NC(=O)[C@H](Cc1ccc(O)cc1)NC(=O)[C@H](CCCCN)NC(=O)[C@@H]1CSSC[C@@H]2NC(=O)[C@H](CCCCN)NC(=O)[C@H](CC(=O)O)NC(=O)[C@H](CC(N)=O)NC(=O)[C@H](CO)NC(=O)[C@@H]3CCCN3C(=O)[C@H](CC(N)=O)NC(=O)[C@@H]3CSSC[C@H](NC(=O)[C@H](C(C)C)NC(=O)[C@H](CC(C)C)NC(=O)[C@H](CO)NC(=O)[C@H](CO)NC(=O)[C@H](CO)NC(=O)[C@H](CCCCN)NC(=O)[C@H](CSSC[C@H](NC(=O)[C@H](C)N)C(=O)N[C@@H](CC(C)C)C(=O)NCC(=O)N[C@@H](Cc4ccccc4)C(=O)NCC(=O)N[C@@H](CCC(=O)O)C(=O)N[C@@H](CCCCN)C(=O)N3)NC2=O)C(=O)N[C@@H](CO)C(=O)N[C@@H](CCC(N)=O)C(=O)N[C@@H](CCCCN)C(=O)N[C@@H](Cc2c[nH]cn2)C(=O)N[C@@H](CCCCN)C(=O)N[C@@H](Cc2c[nH]c3ccccc23)C(=O)N1)C(=O)O [Ca2a] (H-ACLGFGEKCNPSNDKCCKSSSLVCSQKHKWCKYDL-OH; disulfide 2-17, 9-24, 16-31 (inferred); N-terminus and C-terminus assumed) the “decrease of Nav1.3 current amplitude” value (Nav1.3; [1]) was 67.7 ± 3.8%, the IC50 (Nav1.3; [2]) was 491.3 ± 3.9 nM and the “inhibition of peak current of Nav1.4/Q657E” value (Nav1.4/Q657E; 1 μM, n = 4–5 cells) was “significantly inhibited”. The IC50 (Nav1.4/Q657E; mean ± SEM, n = 4–5 cells per data point) was 269 ± 14.9 nM, the “inhibitory effect on Nav1.9 currents” value (Human Nav1.9) was “no inhibitory effects” and the “τoff, WT Nav1.7” value (WT Nav1.7; recovery upon washing with bath solution) was 295.6 ± 27.5 s. The “τon, WT Nav1.7” value (WT Nav1.7) was 18.0 ± 2.5 s, the “inhibitory effect on Nav1.4/N655D” value (Nav1.4/N655D) was “no inhibitory effect” and the “dissociation time constant from Nav1.7” value (Nav1.7; at 60 mV) was 547.2 ± 24.3 ms. For the same molecule, the “dissociation time constant from Nav1.7” value (Nav1.7; at 80 mV) was 347.9 ± 29.2 ms, the “dissociation time constant from Nav1.7” value (Nav1.7; at 100 mV) was 169.8 ± 25.6 ms and the “decrease of Nav1.2 current amplitude” value (Nav1.2; [1]) was 82.6 ± 2.7%. For the same molecule, the IC50 (Nav1.2; [2]) was 216 ± 9.1 nM and the “inactivation time constant of Nav1.7/D816N” value (Nav1.7/D816N) was “did not alter inactivation time constant”.
